Structures are written as SMILES. Bounds are passed on as bounds.

Experimental findings from ChEMBL document CHEMBL1142268, “Histone deacetylase inhibitors: from bench to clinic” (J Med Chem, 2008) are described below.

In one assay the test system is MM96L. Nature of the assay: Inhibition of human MM96L cells. It counts as functional, cell-based.
Conditions: not given
In general, IC50 refers to the midpoint of a concentration-inhibition curve. In turn, `CN(C)c1ccc(C(=O)N[C@@H](CSCCCC(=O)NO)C(=O)NCc2ccccc2)cc1` had an IC50 of 140 nM.
Still for that read-out and setting: the same measure for `O=C(CCCSC[C@H](NC(=O)c1ccc(-c2ccccc2)cc1)C(=O)NCc1ccccc1)NO`: 900 nM.
The compound `O=C(CCCSC[C@H](NC(=O)c1ccc(Br)cc1)C(=O)NCc1ccccc1)NO` displayed a concentration for half-maximal inhibition (IC50) of 200 nM.
On the same count and under the same terms, the same measure for `O=C(CCCSC[C@H](NC(=O)c1ccc2ccccc2c1)C(=O)NCc1ccccc1)NO`: 600 nM; for `O=C(/C=C/c1ccccc1)N[C@@H](CSCCCC(=O)NO)C(=O)NCc1ccccc1`: 200 nM; for `O=C(CCCSC[C@H](NC(=O)c1cc2ccccc2[nH]1)C(=O)NCc1ccccc1)NO`: 130 nM.

Tested on in a further assay: not listed separately
Nature of the assay: Growth inhibition of human neonatal foreskin fibroblasts cells. The conditions noted are these: Fibroblast. It counts as functional, cell-based.
As for `CN(C)c1ccc(C(=O)N[C@@H](CSCCCC(=O)NO)C(=O)NCc2ccccc2)cc1`, 350 nM corresponded to half-maximal inhibition (IC50).
Still for that read-out and setting: in the case of `O=C(CCCSC[C@H](NC(=O)c1ccc(-c2ccccc2)cc1)C(=O)NCc1ccccc1)NO` it was 2800 nM; in that of `O=C(CCCSC[C@H](NC(=O)c1ccc(Br)cc1)C(=O)NCc1ccccc1)NO`, 830 nM.
`O=C(CCCSC[C@H](NC(=O)c1ccc2ccccc2c1)C(=O)NCc1ccccc1)NO` showed an IC50 of 1140 nM.
For the compound `O=C(/C=C/c1ccccc1)N[C@@H](CSCCCC(=O)NO)C(=O)NCc1ccccc1`, the half-maximal inhibitory concentration (IC50) turned out to be 800 nM.
Turning to `O=C(CCCSC[C@H](NC(=O)c1cc2ccccc2[nH]1)C(=O)NCc1ccccc1)NO`, the IC50 was found to be 800 nM.

The target in another assay is T1, Histone deacetylase 1 (Homo sapiens, UniProt Q13547). Nature of the assay: Inhibition of HDAC1 from human HeLa cells. It counts as cell-based.
T1 sequence (Q13547 whole entry): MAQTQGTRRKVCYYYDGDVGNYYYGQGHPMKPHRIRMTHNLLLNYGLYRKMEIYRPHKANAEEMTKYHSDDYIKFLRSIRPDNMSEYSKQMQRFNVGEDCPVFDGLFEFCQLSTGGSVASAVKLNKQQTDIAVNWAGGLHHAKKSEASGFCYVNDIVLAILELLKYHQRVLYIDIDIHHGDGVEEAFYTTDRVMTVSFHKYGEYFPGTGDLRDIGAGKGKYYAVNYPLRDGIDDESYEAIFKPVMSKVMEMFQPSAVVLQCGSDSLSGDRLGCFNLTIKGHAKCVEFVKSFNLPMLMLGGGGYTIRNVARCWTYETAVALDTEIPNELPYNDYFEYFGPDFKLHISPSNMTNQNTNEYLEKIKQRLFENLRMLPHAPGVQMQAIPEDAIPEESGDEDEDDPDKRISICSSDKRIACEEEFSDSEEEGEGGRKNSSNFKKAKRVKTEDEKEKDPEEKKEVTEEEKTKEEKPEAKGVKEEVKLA
Conditions: not given
For the compound `COc1ccc2[nH]c(C)c(CN[C@@H](CCCCCC(C)=O)C(=O)Nc3cccc(-c4ccccc4)c3)c2c1`, it took 230 nM to reach half-maximal inhibition (IC50).
Still for that read-out and setting: in the case of `CC(=O)CCCCC[C@H](NC(=O)c1cnns1)C(=O)NCCc1c(-c2ccccc2)[nH]c2ccccc12` it was 3400 nM; in that of `CC(=O)CCCCC[C@H](NC(=O)CCN1CCCCC1)C(=O)NCCc1c(-c2ccccc2)[nH]c2ccccc12`, less than 390 nM.

Another assay has as its system SK-BR-3. The assay can be described thus: Antiproliferative activity against human SKBR3 cells. It counts as functional, cell-based.
Conditions: not given
Turning to `O=C(CCCCCCC(=O)Nc1ccccc1)NO` [VORINOSTAT], inhibition was half-maximal at 800 nM (IC50).

A further assay deals with Histone deacetylase. Nature of the assay: Inhibition of human liver HDAC.
Conditions: not given
With `O=C(CCCCC[S+]([O-])c1ccccc1)NO` (centres undefined), the half-maximal inhibitory concentration (IC50) is 60 nM.
On the same count and under the same terms, the same measure for `O=C(CCCCCC[S+]([O-])c1ccc(Cl)cc1)NO` (centres undefined): 380 nM; for `O=C(CCCCCSc1ccccc1)NO`: 120 nM.
Compound `O=C(CCCCCS(=O)(=O)c1ccccc1)NO` gave a half-maximal inhibitory concentration (IC50) of 40 nM.
Turning to `CN(C)c1ccc([S+]([O-])CCCCCC(=O)NO)cc1` (centres undefined), the concentration for half-maximal inhibition (IC50) was 180 nM.
The same measure, in the same setting: the same measure for `O=C(CCCCCSc1ccc(Cl)cc1)NO`: 260 nM; for `O=C(CCCCCSc1ccc(NS(=O)(=O)c2ccc(Cl)cc2)cc1)NO`: 110 nM.

The subject of another assay is MCF7. Nature of the assay: Inhibition of human MCF7 cells.
Conditions: not given
It counts as functional, cell-based.
The term GI50 denotes the concentration giving 50% growth inhibition. Read a high GI50 as less potent growth inhibition. On to `O=C(NO)c1cnc(N2CCC(NS(=O)(=O)c3ccc4ccccc4c3)CC2)s1`, for which the concentration for 50% growth inhibition (GI50) is 700 nM.

A further assay has as its system HCT-116. The assay can be described thus: Inhibition of human HCT116 cells. It counts as functional, cell-based.
Conditions: not given
As to `COc1ccc(-c2ccnc(NCc3ccc(C(=O)Nc4ccccc4N)cc3)n2)cn1`, the midpoint of inhibition, the IC50, lay at 100 nM.
The same measure, in the same setting: in the case of `Nc1ccccc1NC(=O)c1ccc(Cn2c(=O)[nH]c3ccccc3c2=O)cc1` it was 600 nM.

A further assay deals with Histone deacetylase. Nature of the assay: Inhibition of HDAC in human CEM cells. It counts as cell-based. Particulars: ccrf-cem.
`O=C(CCCCC[S+]([O-])c1ccccc1)NO` (centres undefined) showed a 50% inhibitory concentration (IC50) of 7400 nM.
On the same count and under the same terms, the same measure for `O=C(CCCCCSc1ccc(Cl)cc1)NO`: greater than 25000 nM.

Still in this assay, the particulars now being: ccrf-cem; read-out: IC50.
Turning to `O=C(CCCCCC[S+]([O-])c1ccc(Cl)cc1)NO` (centres undefined), the half-inhibitory concentration (IC50) was determined as 1600 nM.
Same read-out and setting: in the case of `O=C(CCCCCSc1ccccc1)NO` it was 9400 nM.
Still for that read-out and setting: the same measure for `O=C(CCCCCS(=O)(=O)c1ccccc1)NO`: 15500 nM; for `CN(C)c1ccc([S+]([O-])CCCCCC(=O)NO)cc1` (centres undefined): 2240 nM.
On the same count and under the same terms, the same measure for `O=C(CCCCCSc1ccc(NS(=O)(=O)c2ccc(Cl)cc2)cc1)NO`: 9400 nM.

A further assay addresses T1, Histone deacetylase 1.
Conditions: not given
On to `COc1ccc(-c2ccnc(NCc3ccc(C(=O)Nc4ccccc4N)cc3)n2)cn1`, for which it took 600 nM to reach half-maximal inhibition (IC50).
Still for that read-out and setting: the same measure for `Nc1ccccc1NC(=O)c1ccc(Cn2c(=O)[nH]c3ccccc3c2=O)cc1`: 2000 nM; for `O=C(Cc1ccc(-c2csc(NC(=O)Cc3ccccc3)n2)s1)NO`: greater than 100 nM.

A further assay has as its system CCRF-CEM. The assay can be described thus: Inhibition of human CEM cells assessed as viability. It counts as functional, cell-based.
Conditions: not given
With `O=C(CCCCC[S+]([O-])c1ccccc1)NO` (centres undefined), the half-inhibitory concentration (IC50) is greater than 25000 nM.
Take `O=C(CCCCCC[S+]([O-])c1ccc(Cl)cc1)NO` (centres undefined): the IC50 was found to be 12300 nM.
The same measure, in the same setting: in the case of `O=C(CCCCCSc1ccccc1)NO` it was greater than 25000 nM; in that of `O=C(CCCCCS(=O)(=O)c1ccccc1)NO`, greater than 25000 nM.
Regarding `CN(C)c1ccc([S+]([O-])CCCCCC(=O)NO)cc1` (centres undefined), the IC50 is 3400 nM.
On the same count and under the same terms, the same measure for `O=C(CCCCC[S+]([O-])c1ccc(Cl)cc1)NO` (centres undefined): 2600 nM.
The same measure, in the same setting: in the case of `O=C(CCCCCSc1ccc(Cl)cc1)NO` it was greater than 25000 nM; in that of `O=C(CCCCCSc1ccc(NS(=O)(=O)c2ccc(Cl)cc2)cc1)NO`, greater than 25000 nM.

The target in a further assay is T1, Histone deacetylase 1.
Conditions: not given
The source holds these as a separate data set.
The compound `O=C(CN(CCCCCCC(=O)Nc1ccccc1)CC(=O)Nc1ccccc1)NO` registered an IC50 of 13 nM.
In the case of `O=C(CCCCCCC(=O)N1CCN(c2ccc(Cl)cc2)CC1)NO`, the half-maximal inhibitory concentration (IC50) came to 36.5 nM.
The same measure, in the same setting: the same measure for `COc1ccc2[nH]c(C)c(CN[C@@H](CCCCCC(C)=O)C(=O)Nc3cccc(-c4ccccc4)c3)c2c1`: 18 nM; for `CC(=O)CCCCC[C@H](NC(=O)c1cnns1)C(=O)NCCc1c(-c2ccccc2)[nH]c2ccccc12`: 480 nM.
`CC(=O)CCCCC[C@H](NC(=O)CCN1CCCCC1)C(=O)NCCc1c(-c2ccccc2)[nH]c2ccccc12` gave an IC50 of 190 nM.

Tested on in another assay: not listed separately
The assay can be described thus: Inhibition of mouse SC9 cells. It counts as functional, cell-based.
Conditions: not given
In turn, `O=C(CN(CCCCCCC(=O)Nc1ccccc1)CC(=O)Nc1ccccc1)NO` gave an IC50 of 317000 nM.
The same measure, in the same setting: in the case of `O=C(CCCCCCC(=O)N1CCN(c2ccc(Cl)cc2)CC1)NO` it was 555000 nM; in that of `O=C(CCCCCC(=O)N(CC(=O)Nc1cccc2cccnc12)CC(=O)Nc1cccc2cccnc12)NO`, 52000 nM; in that of `O=C(CCCCCC(=O)N(CC(=O)Nc1nc2ccccc2s1)CC(=O)Nc1nc2ccccc2s1)NO`, 50000 nM.
On the same count and under the same terms, the same measure for `O=C(CCCCCC(=O)N(CC(=O)Nc1ccccc1)CC(=O)Nc1cccc2cccnc12)NO`: 46000 nM.
